ChEMBL document CHEMBL2203104, “Recent advances in antitubercular natural products” (Eur J Med Chem, 2012)
In brackets after ≈: the same amount, converted by molar mass.

Key:
Format in all cases: functional
[1] = system: Mycobacterium tuberculosis; assay: Antimycobacterial activity against multidrug-resistant Mycobacterium tuberculosis
[2] = system: Mycobacterium tuberculosis; assay: Antimycobacterial activity against rifampicin-resistant Mycobacterium tuberculosis
[3] = Selectivity index, ratio of IC50 for african green monkey Vero cells to MIC for multidrug-resistant Mycobacterium tuberculosis

| Structure (SMILES) | MIC [1] [µg/mL] | MIC [2] [µg/mL] | Selectivity Index [3] |
| --- | --- | --- | --- |
| CC(C)C1=C(O)C(=O)C2=C(C1=O)[C@H](O)C[C@H]1C(C)(C)CCC[C@]21C [HORMINONE] | 12.5 (≈ 37.6 µM) | – | – |
| CC(C)C1=C(O)C(=O)C2=C(C1=O)[C@H](O)[C@@H](O)[C@H]1C(C)(C)CCC[C@]21C | 12.5 (≈ 35.9 µM) | – | – |
| CC(C)C1=C(O)C(=O)C2=C(C=C[C@H]3C(C)(C)CCC[C@]23C)C1=O | 12.5 (≈ 39.8 µM) | – | – |
| C=C(C)C(CC[C@@H](C)[C@H]1CC[C@@]2(C)[C@@H]3CC[C@H]4C(C)(C)[C@@H](O)CC[C@@]45C[C@@]35CC[C@]12C)OO (stereo not given in full) | 25 (≈ 54.5 µM) | – | – |
| CC(=O)O[C@H]1C2=C(C(=O)C(OC(=O)c3ccc(Cl)cc3)=C(C(C)C)C2=O)[C@@]2(C)CCCC(C)(C)[C@@H]2[C@@H]1O | 0.78 (≈ 1.47 µM) | – | – |
| C/C=C(/NC(=O)c1csc(-c2csc(-c3ccc4c(n3)-c3csc(n3)C(C(C)(O)C(C)O)NC(=O)c3csc(n3)C(C(C)C)NC(=O)c3csc(n3)/C(=C/OC)NC(=O)C(C(C)O)NC(=O)c3csc-4n3)n2)n1)C(=O)OC (stereo not given) [NOCARDITHIOCIN] | – | 0.025 (≈ 0.0215 µM) | – |
| CC(=O)O[C@H]1C2=C(C(=O)C(O)=C(C(C)C)C2=O)[C@@]2(C)CCCC(C)(C)[C@@H]2[C@@H]1O | 3.12 (≈ 7.99 µM) | – | – |
| C[C@H](C/C=C/C(C)(C)OO)[C@H]1CC[C@@]2(C)[C@@H]3CC[C@H]4C(C)(C)[C@@H](O)CC[C@@]45C[C@@]35CC[C@]12C | 12.5 (≈ 27.2 µM) | – | – |
| COc1ccc(C(=O)OC2=C(C(C)C)C(=O)C3=C(C2=O)[C@@]2(C)CCCC(C)(C)[C@@H]2[C@H](O)[C@H]3OC(C)=O)cc1 | 0.39 (≈ 0.743 µM) | – | 6.6 |
